Literature values, collected in patent publication US9901523B2, “Oral care products comprising zinc oxide and trimethylglycine” (Colgate-Palmolive Company, priority 2012, dated 2018).

Conditions: water at 30° C.

For `[O]=[Zn]` [Zinc oxide], the “solubility of zinc oxide” value is listed as “about 0.16 mg per 100 ml of water”.
